# What was measured:
# KRAS WT = target: T1, KRAS WT (Homo sapiens, UniProt P01116); experiment: HTRF nucleotide exchange assay, KRAS WT; type: biochemical; conditions: class symbols; for IC50: HTRF nucleotide exchange assay (NEA)
# T1 construct: aa1-188 KRAS WT
# KRAS G12D = target: T2, KRAS G12D (Homo sapiens, UniProt P01116, G12D); experiment: HTRF nucleotide exchange assay, KRAS G12D; type: biochemical; conditions: HTRF nucleotide exchange assay (NEA), class symbols
# T2 construct: aa1-188 KRAS WT, HRAS WT, NRAS WT, or KRAS containing the G12D
# T2 sequence (P01116 1-188 isoform P01116-2 G12D): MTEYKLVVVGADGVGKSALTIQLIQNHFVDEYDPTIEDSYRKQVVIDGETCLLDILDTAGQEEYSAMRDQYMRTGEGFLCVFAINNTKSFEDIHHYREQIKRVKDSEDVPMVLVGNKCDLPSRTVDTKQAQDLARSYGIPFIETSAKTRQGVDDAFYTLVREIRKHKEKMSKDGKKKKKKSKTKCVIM
# T1 sequence (P01116 1-188 isoform P01116-2): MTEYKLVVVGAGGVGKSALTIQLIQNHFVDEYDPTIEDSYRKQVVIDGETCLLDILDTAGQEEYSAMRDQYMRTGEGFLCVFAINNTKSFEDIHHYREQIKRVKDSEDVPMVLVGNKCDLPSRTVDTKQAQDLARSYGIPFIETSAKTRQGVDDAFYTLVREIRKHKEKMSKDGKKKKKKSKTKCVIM
Structure (SMILES),IC50 (KRAS WT) [nM],IC50 (KRAS G12D) [nM],KRAS^WT NEA (KRAS WT)
"CCc1c(F)ccc2cc(O)cc(-c3c(C)c4nc(OC[C@@]56CCCN5C[C@H](F)C6)nc(N5CCCn6nc(C(=O)N7CCCC7)cc6C5)c4c4cn(C)nc34)c12 [Example 182, [5-[4-(8-ethyl-7-fluoro-3-hydroxy-1-naphthyl)-7-[[(2R,8S)-2-fluoro-1,2,3,5,6,7-hexahydropyrrolizin-8-yl]methoxy]-2,5-dimethyl-pyrazolo[4,3-f]quinazolin-9-yl]-4,6,7,8-tetrahydropyrazolo[1,5-a][1,4]diazepin-2-yl]-pyrrolidin-1-yl-methanone]",≤ 10,≤ 10,–
"CCc1c(F)ccc2cc(O)cc(-c3cc4nc(OC[C@@]56CCCN5C[C@H](F)C6)nc(N5CCCC5CO)c4c4cn(C)nc34)c12 (stereo partly drawn) [Example 183, 5-ethyl-6-fluoro-4-[9-[2-(hydroxymethyl)pyrrolidin-1-yl]-2-methyl-7-[[(2R,8S)-2-fluoro-1,2,3,5,6,7-hexahydropyrrolizin-8-yl]methoxy]pyrazolo[4,3-f]quinazolin-4-yl]naphthalen-2-ol]",≤ 10,≤ 10,–
"C#Cc1c(F)ccc2cc(O)cc(-c3c(C)c4nc(OC[C@@]56CCCN5C[C@H](F)C6)nc(N5CCC[C@@](C)(O)C5)c4c4cn(C)nc34)c12 [Example 184, (3R)-1-[4-(8-ethynyl-7-fluoro-3-hydroxy-1-naphthyl)-2,5-dimethyl-7-[[(2R,8S)-2-fluoro-1,2,3,5,6,7-hexahydropyrrolizin-8-yl]methoxy]pyrazolo[4,3-f]quinazolin-9-yl]-3-methyl-piperidin-3-ol]",≤ 10,≤ 10,–
"CCc1c(F)ccc2cc(O)cc(-c3cc4nc(OC[C@@]56CCCN5C[C@H](F)C6)nc(N5CC6CCC(C5)N6CC(C)O)c4c4cn(C)nc34)c12 (stereo partly drawn) [Example 186, 5-ethyl-6-fluoro-4-[7-[[(2R,8S)-2-fluoro-1,2,3,5,6,7-hexahydropyrrolizin-8-yl]methoxy]-9-[8-(2-hydroxypropyl)-3,8-diazabicyclo[3.2.1]octan-3-yl]-2-methyl-pyrazolo[4,3-f]quinazolin-4-yl]naphthalen-2-ol]",10 to 100,10 to 100,–
"CCc1c(F)ccc2cc(O)cc(-c3c(F)c4nc(OCC5(CO)CC5)nc(N5CCOCC(C)(O)C5)c4c4cn(C)nc34)c12 (stereo not shown) [Example 188, 4-[4-(8-ethyl-7-fluoro-3-hydroxy-1-naphthyl)-5-fluoro-7-[[1-(hydroxymethyl)cyclopropyl]methoxy]-2-methyl-pyrazolo[4,3-f]quinazolin-9-yl]-6-methyl-1,4-oxazepan-6-ol]",≤ 10,≤ 10,–
"CCc1c(F)ccc2cc(O)cc(-c3c(F)c4nc(OCC5(CN6CCC(F)(F)C6)CC5)nc(N5CCOCC(C)(O)C5)c4c4cn(C)nc34)c12 (stereo not shown) [Example 189, 4-[7-[[1-[(3,3-difluoropyrrolidin-1-yl)methyl]cyclopropyl]methoxy]-4-(8-ethyl-7-fluoro-3-hydroxy-1-naphthyl)-5-fluoro-2-methyl-pyrazolo[4,3-f]quinazolin-9-yl]-6-methyl-1,4-oxazepan-6-ol]",10 to 100,10 to 100,–
"CCc1c(F)ccc2cc(O)cc(-c3c(F)c4nc(OCC5(CN6CC[C@H](O)C6)CC5)nc(N5CCOCC(C)(O)C5)c4c4cn(C)nc34)c12 (stereo partly drawn) [Example 190, 4-[4-(8-ethyl-7-fluoro-3-hydroxy-1-naphthyl)-5-fluoro-2-methyl-7-[[1-[[(3S)-3-hydroxypyrrolidin-1-yl]methyl]cyclopropyl]methoxy]pyrazolo[4,3-f]quinazolin-9-yl]-6-methyl-1,4-oxazepan-6-ol]",≤ 10,≤ 10,–
"CCc1c(F)ccc2cc(O)cc(-c3c(F)c4nc(OCC5(CN6CC(F)(F)C6)CC5)nc(N5CCOCC(C)(O)C5)c4c4cn(C)nc34)c12 (stereo not shown) [Example 191, 4-[7-[[1-[(3,3-difluoroazetidin-1-yl)methyl]cyclopropyl]methoxy]-4-(8-ethyl-7-fluoro-3-hydroxy-1-naphthyl)-5-fluoro-2-methyl-pyrazolo[4,3-f]quinazolin-9-yl]-6-methyl-1,4-oxazepan-6-ol]",10 to 100,≤ 10,–
"CCc1c(F)ccc2cc(O)cc(-c3c(F)c4nc(OCC5(CN(C)CC(F)(F)F)CC5)nc(N5CCOCC(C)(O)C5)c4c4cn(C)nc34)c12 (stereo not shown) [Example 192, 4-[4-(8-ethyl-7-fluoro-3-hydroxy-1-naphthyl)-5-fluoro-2-methyl-7-[[1-[[methyl(2,2,2-trifluoroethyl)amino]methyl]cyclopropyl]methoxy]pyrazolo[4,3-f]quinazolin-9-yl]-6-methyl-1,4-oxazepan-6-ol]",–,100 to 10000,D (<49% inhibition at 10 μM)
"CCc1c(F)ccc2cc(O)cc(-c3c(F)c4nc(OCC5(CN6CC[C@@H](O)C6)CC5)nc(N5CCOCC(C)(O)C5)c4c4cn(C)nc34)c12 (stereo partly drawn) [Example 194, 4-[4-(8-ethyl-7-fluoro-3-hydroxy-1-naphthyl)-5-fluoro-2-methyl-7-[[1-[[(3R)-3-hydroxypyrrolidin-1-yl]methyl]cyclopropyl]methoxy]pyrazolo[4,3-f]quinazolin-9-yl]-6-methyl-1,4-oxazepan-6-ol]",≤ 10,≤ 10,–

# Next, values leading:
IC50 (KRAS WT) [nM],IC50 (KRAS G12D) [nM],KRAS^WT NEA (KRAS WT),Structure (SMILES)
≤ 10,10 to 100,–,"C#Cc1c(F)ccc2cc(O)cc(-c3c(C)c4nc(OC[C@@]56CCCN5C[C@H](F)C6)nc(N5CCOCC(C)(O)C5)c4c4cn(C)nc34)c12 (stereo partly drawn) [Example 185, 4-[4-(8-ethynyl-7-fluoro-3-hydroxy-1-naphthyl)-7-[[(2R,8S)-2-fluoro-1,2,3,5,6,7-hexahydropyrrolizin-8-yl]methoxy]-2,5-dimethyl-pyrazolo[4,3-f]quinazolin-9-yl]-6-methyl-1,4-oxazepan-6-ol]"
≤ 10,≤ 10,–,"CCc1c(F)ccc2cc(O)cc(-c3c(F)c4nc(OCC5(CN6CCC(OC)CC6)CC5)nc(N5CCOCC(C)(O)C5)c4c4cn(C)nc34)c12 (stereo not shown) [Example 187, 4-[4-(8-ethyl-7-fluoro-3-hydroxy-1-naphthyl)-5-fluoro-7-[[1-[(4-methoxy-1-piperidyl)methyl]cyclopropyl]methoxy]-2-methyl-pyrazolo[4,3-f]quinazolin-9-yl]-6-methyl-1,4-oxazepan-6-ol]"
≤ 10,≤ 10,–,"CCc1c(F)ccc2cc(O)cc(-c3c(F)c4nc(OCC5(CN6CC[C@@H](F)C6)CC5)nc(N5CCOCC(C)(O)C5)c4c4cn(C)nc34)c12 (stereo partly drawn) [Example 193, 4-[4-(8-ethyl-7-fluoro-3-hydroxy-1-naphthyl)-5-fluoro-2-methyl-7-[[1-[[(3R)-3-fluoropyrrolidin-1-yl]methyl]cyclopropyl]methoxy]pyrazolo[4,3-f]quinazolin-9-yl]-6-methyl-1,4-oxazepan-6-ol]"
≤ 10,≤ 10,–,"CCc1c(F)ccc2cc(O)cc(-c3c(F)c4nc(OC[C@@]56CCCN5C[C@H](F)C6)nc(N5CCCn6nc(C(=O)N7CCOCC7)cc6C5)c4c4cn(C)nc34)c12 [Example 195, [5-[4-(8-ethyl-7-fluoro-3-hydroxy-1-naphthyl)-5-fluoro-7-[[(2R,8S)-2-fluoro-1,2,3,5,6,7-hexahydropyrrolizin-8-yl]methoxy]-2-methyl-pyrazolo[4,3-f]quinazolin-9-yl]-4,6,7,8-tetrahydropyrazolo[1,5-a][1,4]diazepin-2-yl]-morpholino-methanone]"
